Experiment [1] deals with growth hormone secretion. The settings on record: ref Hartt et al. [1995]; Shimekake et al. [1994]; cited from earlier work. The text has this: Both humans and mice with mutations in the genes encoding either CNP or its receptor, GC-B, suffer from severe growth disorders (Chusho et al. [2001]) and, in some cases, growth hormone deficiency (Tamura et al. [2004]). Despite significant homology between the three natriuretic peptides and between their receptors, mutations in the genes encoding ANP, BNP, or GC-A fail to phenocopy CNP/GC-B-disrupted mice (Kishimoto et al. [2011]). Our recent observations of GC-B expression in normal fetal pituitary tissue and in a range of human pituitary adenomas (including those from acromegalics) strongly ...

The subject of experiment [2] is GC-A and GC-B receptors. The conditions noted are these: prolonged exposure; ref Fan et al. [2005]; Dickey et al. [2011]; cited from earlier work. An excerpt:
Pharmacological regulation of the GC-B receptor has been elegantly described through many studies by Potter and Hunter ([1998a], [1999]) who have shown that dephosphorylation of specific serine and threonine residues of the GC-B receptor leads to rapid homologous desensitization. In keeping with the extensive literature describing the regulation of GC-A receptors (Potter et al. [2006]), enhancement of protein kinase C (PKC) activity leads to heterologous desensitization (Potter and Hunter [2000]).

Experiment [3] deals with T1, GC-B (Rattus norvegicus, UniProt P16067).
T1 construct: rapid homologous desensitization of endogenous GC-B receptors in GH3 cells; endogenous in cells; host or cells: GH3 rat somatolactotrope cells
T1 sequence (P16067 17-1047): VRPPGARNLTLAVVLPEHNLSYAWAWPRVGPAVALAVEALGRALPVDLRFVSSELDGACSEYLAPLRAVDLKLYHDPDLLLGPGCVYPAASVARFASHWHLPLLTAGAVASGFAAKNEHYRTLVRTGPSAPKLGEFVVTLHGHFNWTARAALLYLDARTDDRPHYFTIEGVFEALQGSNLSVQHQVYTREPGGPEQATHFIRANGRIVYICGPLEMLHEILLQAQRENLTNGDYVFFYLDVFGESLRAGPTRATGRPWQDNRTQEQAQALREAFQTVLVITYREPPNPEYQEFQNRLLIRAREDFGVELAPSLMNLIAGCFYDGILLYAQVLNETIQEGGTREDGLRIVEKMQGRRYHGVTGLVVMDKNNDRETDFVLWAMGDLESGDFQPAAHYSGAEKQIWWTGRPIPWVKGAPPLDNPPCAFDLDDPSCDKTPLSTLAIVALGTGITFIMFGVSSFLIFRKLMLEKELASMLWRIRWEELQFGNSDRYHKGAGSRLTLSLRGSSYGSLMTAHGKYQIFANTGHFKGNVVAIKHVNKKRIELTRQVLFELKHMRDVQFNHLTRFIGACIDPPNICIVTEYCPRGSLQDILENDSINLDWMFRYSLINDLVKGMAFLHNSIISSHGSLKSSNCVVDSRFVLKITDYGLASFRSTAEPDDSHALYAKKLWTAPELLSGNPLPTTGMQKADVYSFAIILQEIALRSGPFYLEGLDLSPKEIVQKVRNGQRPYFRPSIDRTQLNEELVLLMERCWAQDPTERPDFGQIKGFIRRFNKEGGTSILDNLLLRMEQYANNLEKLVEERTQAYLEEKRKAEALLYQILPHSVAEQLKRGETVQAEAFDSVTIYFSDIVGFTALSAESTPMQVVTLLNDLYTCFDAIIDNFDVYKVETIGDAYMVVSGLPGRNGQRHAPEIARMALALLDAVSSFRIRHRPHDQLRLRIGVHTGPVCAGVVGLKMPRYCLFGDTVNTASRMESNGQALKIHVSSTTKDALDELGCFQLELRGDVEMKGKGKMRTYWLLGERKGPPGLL
Briefly: Effect of protein phosphatase inhibitors on rapid homologous desensitization of CNP-stimulated cGMP accumulation in GH3 cells. The format is cell-based. The conditions noted are these: 100 nM CNP, 1 mM IBMX; 30 min pre-treatment with 100 nM OA, 1 nM cypermethrin or 1 mM Na3VO4; control = CNP alone; n = 3. The protocol:
Fig. 2 Rapid homologous desensitization of CNP-dependent but not ANP-dependent cGMP accumulation in GH3 cells. Cells were treated with PSS containing either (a) 100 nM CNP or (b) 100 nM ANP for 0–15 min in the presence of 1 mM IBMX.
Similar short time-courses were performed, except that some cells were pre-treated with 100 nM okadaic acid (OA, a PP2A inhibitor), 1 nM cypermethrin (a PP2B inhibitor), or 1 mM sodium orthovanadate (Na3VO4, a protein tyrosine phosphatase inhibitor) for 30 min prior to CNP treatment (Fig. 2c).

Experiment [4] concerns αT3-1 cells. The settings on record: ref Fowkes et al. [2000]; cited from earlier work. The text has this: (§1) As activation of either GC-B or GC-A signaling leads to an increase in cGMP concentrations, we examined whether stimulation of each receptor would lead to the desensitization of the other receptor.
The subject of experiment [5] is GC-A. The conditions noted are these: ref Suga et al. [1992]; cited from earlier work.
Source text: as §1

With `CC[C@H](C)[C@@H]1NC(=O)[C@H](CCCNC(=N)N)NC(=O)[C@H](CC(=O)O)NC(=O)[C@H](CC(C)C)NC(=O)[C@H](CCCCN)NC(=O)[C@H](CC(C)C)NC(=O)CNC(=O)[C@H](Cc2ccccc2)NC(=O)[C@@H](NC(=O)CNC(=O)[C@H](CCCCN)NC(=O)[C@H](CO)NC(=O)[C@H](CC(C)C)NC(=O)CN)CSSC[C@@H](C(=O)O)NC(=O)CNC(=O)[C@H](CC(C)C)NC(=O)CNC(=O)[C@H](CO)NC(=O)[C@H](CCSC)NC(=O)[C@H](CO)NC(=O)CNC1=O` [CNP, C-type natriuretic peptide], the growth hormone secretion entry in experiment [1] is given as “act as growth hormone secretogogs”. Also, the agonist-induced internalization result in experiment [2] was “does not appear to cause agonist-induced internalization”. In addition, the “rate of cGMP accumulation from 5 to 15 min (desensitization)” value in experiment [3] is reported as “underwent desensitization as shown by the failure to maintain the initial rate of cGMP accumulation”. For the same compound, the “desensitization of the other receptor” value in experiment [4] is “fail to desensitize the other receptor”. Moreover, in experiment [5], the “activation of the reciprocal receptor” value was “can activate the reciprocal receptor, albeit only at pharmacological concentrations”.

These data come from publication PMC3921447, “Homologous and heterologous desensitization of guanylyl cyclase-B signaling in GH3 somatolactotropes” (Cell and Tissue Research, 2013).
